{
  "source": "patent US5567624A",
  "about": "“Carbazine dyes and derivatives for pH measurement” (Utah Medical Products, Inc., priority 1995, dated 1996)",
  "format_in_all_cases": "physicochemical",
  "key": {"[1]": {"assay": "Absorbance and fluorescence emission spectra of acid and base forms of the dyes", "conditions": "Table, footnote c", "experimental": "Certain properties of the carbazine dyes of Examples 1-7 were determined. Spectral data were obtained either with a Hewlett Packard Model 8452A Diode Array Spectrophotometer or a Perkin Elmer Model LS 50B Luminescence Spectrometer. All of the dyes are similar in their absorbance and emission spectra, with only slight differences in peak locations, ratios of absorbance of acid to absorbance of base, and pKa s. The unmodified dyes show large separation between absorbance peaks for acid and base forms. Typically, the acid form has a peak absorbance at about 480 nm, and the base form has a peak absorbance at about 660 nm. Fluorescence emission of the base form has a well-defined single peak at approximately 690 nm."}, "[2]": {"assay": "pKa of the dyes in aqueous solution, derived from the absorbance spectra", "excerpt": "The pKa values, i.e. the approximate pH values of an aqueous solution of the dye where the acid and base forms of the dye are present in equal concentrations, were derived from the absorbance spectra and are listed in the Table below. As mentioned above, indicator dyes are generally most sensitive to pH changes near their pKa s."}, "[3]": {"assay": "Fluorescence rating / quantum yield in aqueous solution", "conditions": "for Fluorescence: relative scale of 1 to 10 where 10 is best, excitation at maximum absorbance wavelength, constant concentration and pH", "excerpt": "The fluorescence ratings shown in the Table are based on the maximum fluorescence obtainable from an aqueous carbazine dye solution with excitation at the maximum absorbance wavelength for the particular dye, but with concentrations and pH constant between all dyes. […] Quantum yields of the acid forms of the dyes appears as high as the base forms. The carbazine dye of Example 4, sold commercially as \"CARBAZINE 720\" (Exciton, Inc., Dayton, Ohio), has a quantum yield of approximately 50% in aqueous solution containing base."}},
  "data": [
    {"smiles": "O=C1C=CC2(C=C1)C1=CC(=O)C=CC1=Nc1ccc(O)cc12", "note": "[Example 1, 7-hydroxyspiro[acridine-9,1'-cyclohexa-2',5'-diene]-2(9H),4'-dione]", "values": [
      {"measurement": "Absorbance ratio of acid/base", "setting": "[1]", "result": 0.426},
      {"measurement": "pKa", "setting": "[2]", "result": 6.5},
      {"measurement": "Fluorescence", "setting": "[3]", "result": 2}
    ]},
    {"smiles": "CC1=CC(=O)C=C(C)C12C1=CC(=O)C=CC1=Nc1ccc(O)cc12", "note": "[Example 2]", "values": [
      {"measurement": "Absorbance ratio of acid/base", "setting": "[1]", "result": 0.391},
      {"measurement": "pKa", "setting": "[2]", "result": 6.5},
      {"measurement": "Fluorescence", "setting": "[3]", "result": 7}
    ]},
    {"smiles": "CC1=CC(=O)C(C)=C(C)C12C1=CC(=O)C=CC1=Nc1ccc(O)cc12", "note": "(stereo not shown) [Example 3]", "values": [
      {"measurement": "Absorbance ratio of acid/base", "setting": "[1]", "result": 0.380},
      {"measurement": "pKa", "setting": "[2]", "result": 6.5},
      {"measurement": "Fluorescence", "setting": "[3]", "result": 10}
    ]},
    {"smiles": "CC1=C(C)C2(C3=CC(=O)C=CC3=Nc3ccc(O)cc32)C(C)=C(C)C1=O", "note": "[Example 4, 7-hydroxy-2',3',5',6'-tetramethylspiro[acridine-9,1'-cyclohexa-2', 5'-diene]-2(9H), 4'-dione]", "values": [
      {"measurement": "Absorbance ratio of acid/base", "setting": "[1]", "result": 0.388},
      {"measurement": "pKa", "setting": "[2]", "result": 6.5},
      {"measurement": "quantum yield", "setting": "[3]; aqueous solution containing base", "result": "approximately 50%"},
      {"measurement": "Fluorescence", "setting": "[3]", "result": 10}
    ]},
    {"smiles": "O=C1C=CC2=Nc3ccc(O)cc3C3(C=CC(=O)C4=C3CCCC4)C2=C1", "note": "(stereo not shown) [Example 5]", "values": [
      {"measurement": "Absorbance ratio of acid/base", "setting": "[1]", "result": 0.387},
      {"measurement": "pKa", "setting": "[2]", "result": 6.7},
      {"measurement": "Fluorescence", "setting": "[3]", "result": 8}
    ]},
    {"smiles": "CC1=CC(=O)C=C(C(C)C)C12C1=CC(=O)C=CC1=Nc1ccc(O)cc12", "note": "(stereo not shown) [Example 6]", "values": [
      {"measurement": "Absorbance ratio of acid/base", "setting": "[1]", "result": 0.377},
      {"measurement": "pKa", "setting": "[2]", "result": 6.4},
      {"measurement": "Fluorescence", "setting": "[3]", "result": 7}
    ]},
    {"smiles": "CC(C)(C)C1=CC2(C=CC1=O)C1=CC(=O)C=CC1=Nc1ccc(O)cc12", "note": "(stereo not shown) [Example 7]", "values": [
      {"measurement": "Absorbance ratio of acid/base", "setting": "[1]", "result": 0.324},
      {"measurement": "pKa", "setting": "[2]", "result": 7.2},
      {"measurement": "Fluorescence", "setting": "[3]", "result": 6}
    ]}
  ]
}
